According to US11197885B2, “Collagen enhancing agent made from low acyl gellan gum, methods of making and methods of using the same” (The University of Toledo, priority 2015, dated 2021):

Assays:
[1] = system: differentiated dopaminergic PC12 cells exposed to 30 μM 6-OHDA; assay: LIVE/DEAD viability of differentiated PC12 cells exposed to 6-OHDA; format: cell-based; conditions: 1 μM for 6 h, then 30 μM 6-OHDA for 24 h
Method: Differentiated dopaminergic PC12 cells and primary mouse embryonic cortical neurons (E17, DIV14) were treated with mock (H2O) or 1 μM of dextran, alginate, HA-GAGR, or midi-GAGR for 6 h and insulated by oxidative stressors (30 μM 6-OHDA [PC12] and 10 μM amyloid β peptide [cortical neurons]) for 24 h.

[2] = system: mouse cortical neurons (E17, DIV5); assay: LIVE/DEAD assay, pre-treatment of mouse cortical neurons before 4HNE, H2O2 or Aβ42; format: cell-based; conditions: pre-treatment 24 h (same concentrations)
Text: The protective effect of polysaccharides on primary cortical neurons from 4HNE, H2O2, and Aβ42 peptide (Sigma) was examined using LIVE/DEAD® Viability/Cytotoxicity Assay Kit (Life Technologies). Female pregnant mice (BALB/C, E17, Charles River Laboratories International, Inc.) or female pregnant SD rats (E17, bred in house) were anesthetized and dissected to obtain 8-9 embryos per animal. Cortical neurons were isolated from embryonic brains and differentiated on poly-L-lysine-coated coverslips in B27/neurobasal medium. For drug treatment before free radical treatment, mouse cortical neurons (5 days in vitro [DIV5]) were treated with vehicle (H2O), 1 μM of 5 kD dextran (Sigma), alginate (Sigma), midi-GAGR, 0.01 μM of high acyl gellan gum (HA-GAGR, CPKelco Co.), or 0.1 μM of LA-GAGR for 24 h and then treated with 10 μM 4HNE or 50 μM H2O2 for 24 h, or 2 μM Aβ42 peptide for 48 h prior to viability/cytotoxicity assay. For drug co-treatment with free radicals, rat cortical neurons (DIV5) were treated with 1 μM of dextran, alginate, or midi-GAGR, 0.01 μM of HA-GAGR, or 0.1 μM of LA-GAGR along with either 10 μM 4HNE (24 h) or 2 μM Aβ42 peptide (48 h). To examine the extent to which midi-GAGR-mediated neuroprotection depends on FGFR1, rat cortical neurons (E17, DIV5) were pre-treated with 4 μM SU5402 (Sigma) for 6 h and treated with 10 μM 4HNE and either vehicle or 1 μM midi-GAGR for 24 h prior to cell viability/cytotoxicity assay. As controls, neurons were treated with SU5402, midi-GAGR, 4HNE, 4HNE plus midi-GAGR, or SU5402 plus midi-GAGR.
For cell viability/cytotoxicity measurement, neurons on glass coverslips were incubated in 1×PBS containing 2 μM calcein AM (live cells: green) and 4 μM ethidium homodimer-1 (dead cells: red) for 10 min at 37° C. Immediately thereafter, neurons were imaged by 10×objective using a fluorescence Olympus IX71 microscope (Olympus America Inc., Center Valley, Pa.) and, for the acquisition of high-quality images, using TCS SP5 multi-photon laser scanning confocal microscope.
Midi-GAGR attenuated neurite atrophy caused by free reactive radicals. It is now shown herein that midi-GAGR protect neurons from the death caused by free radical insults. The extent to which midi-GAGR protects the primary culture of rodent cortical neurons from 4HNE and H2O2 was determined. In addition to the radicals, amyloid β peptide (Aβ42) was also tested. Aβ42 peptide is a major causative factor that causes oxidative stress and neuron death. Mouse cortical neurons (E17, DIV5) were treated with 10 μM 4HNE (24 h), 50 μM H2O2 (24 h), or 2 μM Aβ42 peptide (48 h) after the treatment of the neurons with vehicle (H2O), midi-GAGR (1 μM), dextran (1 μM), alginate (1 μM), LA-GAGR (0.1 μM), or HA-GAGR (0.01 μM) for 24 h. The concentrations of 4HNE, H2O2, and Aβ42 peptide were chosen according to their patho-physiological concentrations. The concentrations of LA-GAGR and HA-GAGR were chosen because, within the same volume, the total numbers of sugar units in the polysaccharides at the concentrations are close to that of 1 μM midi-GAGR. The viability of neurons was assessed using LIVE/DEAD® Viability/Cytotoxicity Assay Kit in which membrane-permeant calcein AM is cleaved by esterase in live cells, thus yielding green fluorescence, and membrane-impermeant ethidium homodimer-1 stains the nucleic acids of plasma membrane-compromised cells with red fluorescence. The numbers of green (live) and red (dead) neurons in each condition were counted using Metamorph. Although the intensities of green fluorescent signals in neurons treated with either free radicals or Aβ42 peptide were weak, the neurons were included in the counting. About 8-9% of vehicle-treated neurons died during the process of live/dead cell assay (FIGS. 23A-23F, FIGS. 24A-24C).

dextran
6-OHDA-induced cell death [1]: did not
percent of neuron death ([2]; then 2 μM Aβ42 peptide 48 h): did not decrease
percent of neuron death ([2]; then 50 μM H2O2 24 h): did not reduce
